The data set can be described thus: Intramolecular Cu-catalysed sydnonimine-alkyne click-and-release (forms 1,4-disubstituted pyrazole, releases CO2 and pyrenylmethyl urea/isocyanate): CuSO4 0.2 eq, bathophenanthroline disulfonate 0.4 eq, Na ascorbate 3 eq, triethanolamine 2 eq, 16 h; rGO filtration and aqueous work-up. The note with it: DMSO/H2O 1:1, 35.0 mM, 37.0 °C.

Molecules are shown by their SMILES.

`COC(=O)[C@@H]1CCCCNC(=O)c2cccc(c2)-n2cc(cn2)CCCC(=O)N1` [hex-5-ynoyl-Lys(Nε-3-(sydnonimine-pyrene)benzoyl)-OMe]: the ring closure, isolated yield (from C#CCCCC(=O)N[C@@H](CCCCNC(=O)c1cccc(-[n+]2cc([N-]C(=O)NCc3ccc4ccc5cccc6ccc3c4c56)on2)c1)C(=O)OC, 18-membered ring) came out at 76%.

In turn, `O=C1CCCCCCCCCCNC(=O)c2cccc(c2)-n2cc(cn2)CNC(=O)CN1` [S5 -> CyP5] gave a ring closure, isolated yield (from C#CCNC(=O)CNC(=O)CCCCCCCCCCNC(=O)c1cccc(-[n+]2cc([N-]C(=O)NCc3ccc4ccc5cccc6ccc3c4c56)on2)c1, 24-membered ring) of 68%.

`O=C1NCCOCCOCCOCc2cnn(c2)-c2cccc1c2` [S7 -> CyP7 (50 C)] registered a ring closure, isolated yield (from C#CCOCCOCCOCCNC(=O)c1cccc(-[n+]2cc([N-]C(=O)NCc3ccc4ccc5cccc6ccc3c4c56)on2)c1, 18-membered ring) of 81%.

On to `C#CCNC(=O)CNC(=O)c1cccc(-[n+]2cc([N-]C(=O)NCc3ccc4ccc5cccc6ccc3c4c56)on2)c1` [S1 -> CyP1], for which the ring closure, isolated yield (the molecule shown is the open-chain precursor, 12-membered ring) stood at 0%.

Where the note is “from C#CCNC(=O)CCCCNC(=O)c1cccc(-[n+]2cc([N-]C(=O)NCc3ccc4ccc5cccc6ccc3c4c56)on2)c1, 15-membered ring”, `O=C1CCCCNC(=O)c2cccc(c2)-n2cc(cn2)CN1` [S2 -> CyP2] registered a ring closure, isolated yield of 75%.

As to `O=C1CCc2cnn(c2)-c2cccc(c2)C(=O)Nc2ccc(cc2)Oc2cccc(c2)Oc2ccc(cc2)N1` [S8 -> CyP8], for the setting “from C#CCCC(=O)Nc1ccc(Oc2cccc(Oc3ccc(NC(=O)c4cccc(-[n+]5cc([N-]C(=O)NCc6ccc7ccc8cccc9ccc6c7c89)on5)c4)cc3)c2)cc1, 25-membered ring”, the ring closure, isolated yield is 72%.

In turn, `O=C1CCCCCCCCCCNC(=O)c2cccc(c2)-n2cc(cn2)CNC(=O)CCCCN1` [S6 -> CyP6] gave a ring closure, isolated yield (from C#CCNC(=O)CCCCNC(=O)CCCCCCCCCCNC(=O)c1cccc(-[n+]2cc([N-]C(=O)NCc3ccc4ccc5cccc6ccc3c4c56)on2)c1, 27-membered ring) of 78%.

Turning to `CC(C)C[C@@H]1NC(=O)c2cccc(c2)-n2cc(cn2)CNC(=O)[C@H](C)NC1=O` [3-(sydnonimine-pyrene)benzoyl-Leu-Ala-NH-propargyl], where the note is “from C#CCNC(=O)[C@H](C)NC(=O)[C@H](CC(C)C)NC(=O)c1cccc(-[n+]2cc([N-]C(=O)NCc3ccc4ccc5cccc6ccc3c4c56)on2)c1, 15-membered ring”, the ring closure, isolated yield came to 68%.

Turning to `CC(C)C[C@@H]1NC(=O)[C@H](Cc2ccccc2)NC(=O)c2cccc(c2)-n2cc(cn2)CNC1=O` [3-(sydnonimine-pyrene)benzoyl-Phe-Leu-NH-propargyl], the ring closure, isolated yield (from C#CCNC(=O)[C@H](CC(C)C)NC(=O)[C@H](Cc1ccccc1)NC(=O)c1cccc(-[n+]2cc([N-]C(=O)NCc3ccc4ccc5cccc6ccc3c4c56)on2)c1, 15-membered ring) is 63%.

Where the note is “from C#CCNC(=O)CCCCCCCNC(=O)c1cccc(-[n+]2cc([N-]C(=O)NCc3ccc4ccc5cccc6ccc3c4c56)on2)c1, 18-membered ring”, `O=C1CCCCCCCNC(=O)c2cccc(c2)-n2cc(cn2)CN1` [S3 -> CyP3] showed a ring closure, isolated yield of 85%.

For `CC(C)C[C@@H]1NC(=O)[C@@H]2CCCN2Cc2cnn(c2)-c2cccc(c2)C(=O)NCCNC(=O)CNC1=O`, the ring closure, isolated yield (from C#CCN1CCC[C@H]1C(=O)N[C@@H](CC(C)C)C(=O)NCC(=O)NCCNC(=O)c1cccc(-[n+]2cc([N-]C(=O)NCc3ccc4ccc5cccc6ccc3c4c56)on2)c1, 21-membered ring) is 79%.

Turning to `O=C1CCCCCCCCCCNC(=O)c2cccc(c2)-n2cc(cn2)CN1` [S4 -> CyP4], for the setting “from C#CCNC(=O)CCCCCCCCCCNC(=O)c1cccc(-[n+]2cc([N-]C(=O)NCc3ccc4ccc5cccc6ccc3c4c56)on2)c1, 21-membered ring”, the ring closure, isolated yield was 65%.

Compound `O=C1CNC(=O)[C@H](Cc2c[nH]c3ccccc23)NC(=O)c2cccc(c2)-n2cc(cn2)CN1` [3-(sydnonimine-pyrene)benzoyl-Trp-Gly-NH-propargyl] yielded a ring closure, isolated yield (from C#CCNC(=O)CNC(=O)[C@H](Cc1c[nH]c2ccccc12)NC(=O)c1cccc(-[n+]2cc([N-]C(=O)NCc3ccc4ccc5cccc6ccc3c4c56)on2)c1, 15-membered ring) of 75%.

These data come from paper PMC12117170.
